The nature of series [1]: in vivo. To be noted: CD1, mouse, plasma, iv, 1 mg/kg.
Series [2] in a line: in vivo. To be noted: CD1, mouse, plasma, po, 5 mg/kg.
The nature of series [3]: in vivo. To be noted: CD1, mouse, iv, 1 mg/kg.
Series [4] can be described thus: in vivo. To be noted: CD1, mouse, po, 5 mg/kg.
The nature of series [5]: in vivo. To be noted: CD1, mouse.
A short description of series [6]: in vivo. To be noted: CD1, mouse, plasma, iv, 1 mg/kg. This is another data set of the same source.
The nature of series [7]: in vivo. To be noted: Sprague-Dawley, rat, po, 5 mg/kg.
Series [8] can be described thus: in vivo. To be noted: Sprague-Dawley, rat, iv, 1 mg/kg.
Series [9] in a line: in vivo. To be noted: Sprague-Dawley, rat.
Series [10] is described as follows: in vivo. To be noted: Sprague-Dawley, rat, plasma, iv, 1 mg/kg.
The nature of series [11]: in vitro. To be noted: rat, liver microsomes. Background: Liver microsomes are vesicles of endoplasmic reticulum, rich in cytochrome P450 enzymes.
The nature of series [12]: in vitro. To be noted: mouse, liver microsomes.
A short description of series [13]: in vitro. To be noted: human, liver microsomes.
Series [14] is described as follows: in vitro. To be noted: rat, plasma.
Series [15] is described as follows: in vitro. To be noted: mouse, plasma.
The nature of series [16]: in vitro. To be noted: human, plasma.
Series [17] in a line: in vitro. To be noted: dog, MDCK.
Series [18] can be described thus: in vitro. To be noted: dog, MDCK. The source holds these as a separate data set.
Series [19] can be described thus: physchem. To be noted: octanol/aqueous buffer, pH 7.4.
Series [20] is described as follows: in vivo. To be noted: CD1, mouse, po, 100 mg/kg.
Series [21] can be described thus: in vivo. To be noted: CD1, mouse, plasma, po, 100 mg/kg.
A short description of series [22]: physchem. To be noted: PBS buffer, pH 7.4.
The species entered for series [23] is Mus musculus. Description: animal or person. To be noted: C57BL/6, po, read-out: INH.
The species entered for series [24] is Mus musculus. Description: animal or person. To be noted: C57BL/6, po, read-out: INH. The source holds these as a separate data set.
The species entered for series [25] is Mus musculus. The series can be described thus: animal or person. To be noted: C57BL/6, po, read-out: INH. The source holds these as a separate data set.
Series [26] is filed under the species Mus musculus. The series can be described thus: animal or person. To be noted: C57BL/6, po, read-out: INH. The source holds these as a separate data set.
Series [27] addresses Tyrosine-protein kinase Lck (Homo sapiens) (UniProt P06239). To be noted: 180 nM.
Series [28] has as its target Cyclin-dependent kinase 5 (Homo sapiens) (UniProt Q00535). To be noted: 180 nM.
The species entered for another series is Homo sapiens. To be noted: 180 nM.
The target in series [29] is Ribosomal protein S6 kinase alpha-3 (Homo sapiens) (UniProt P51812). To be noted: 180 nM.
In series [30] the target is Ribosomal protein S6 kinase alpha-6 (Homo sapiens) (UniProt Q9UK32). To be noted: 180 nM.
The target in series [31] is Ribosomal protein S6 kinase alpha-2 (Homo sapiens) (UniProt Q15349). To be noted: 180 nM.
Series [32] is described as follows: in vitro. To be noted: human, liver microsomes. This is another data set of the same source.

SMILES strings stand for the structures. ≈ marks a conversion by molar mass, not a printed value.

Chain of Cyclin-dependent kinase 5 (Homo sapiens) (Q00535 whole entry, looked up): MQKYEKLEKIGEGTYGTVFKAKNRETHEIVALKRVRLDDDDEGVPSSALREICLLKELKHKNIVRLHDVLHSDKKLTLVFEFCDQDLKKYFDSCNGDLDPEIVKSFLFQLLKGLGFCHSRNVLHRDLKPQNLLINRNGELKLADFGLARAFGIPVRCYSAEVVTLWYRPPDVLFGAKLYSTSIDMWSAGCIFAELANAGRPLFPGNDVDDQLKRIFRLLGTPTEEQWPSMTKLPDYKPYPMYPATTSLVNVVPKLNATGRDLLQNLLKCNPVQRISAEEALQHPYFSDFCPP
Chain of Ribosomal protein S6 kinase alpha-3 (Homo sapiens) (P51812 whole entry): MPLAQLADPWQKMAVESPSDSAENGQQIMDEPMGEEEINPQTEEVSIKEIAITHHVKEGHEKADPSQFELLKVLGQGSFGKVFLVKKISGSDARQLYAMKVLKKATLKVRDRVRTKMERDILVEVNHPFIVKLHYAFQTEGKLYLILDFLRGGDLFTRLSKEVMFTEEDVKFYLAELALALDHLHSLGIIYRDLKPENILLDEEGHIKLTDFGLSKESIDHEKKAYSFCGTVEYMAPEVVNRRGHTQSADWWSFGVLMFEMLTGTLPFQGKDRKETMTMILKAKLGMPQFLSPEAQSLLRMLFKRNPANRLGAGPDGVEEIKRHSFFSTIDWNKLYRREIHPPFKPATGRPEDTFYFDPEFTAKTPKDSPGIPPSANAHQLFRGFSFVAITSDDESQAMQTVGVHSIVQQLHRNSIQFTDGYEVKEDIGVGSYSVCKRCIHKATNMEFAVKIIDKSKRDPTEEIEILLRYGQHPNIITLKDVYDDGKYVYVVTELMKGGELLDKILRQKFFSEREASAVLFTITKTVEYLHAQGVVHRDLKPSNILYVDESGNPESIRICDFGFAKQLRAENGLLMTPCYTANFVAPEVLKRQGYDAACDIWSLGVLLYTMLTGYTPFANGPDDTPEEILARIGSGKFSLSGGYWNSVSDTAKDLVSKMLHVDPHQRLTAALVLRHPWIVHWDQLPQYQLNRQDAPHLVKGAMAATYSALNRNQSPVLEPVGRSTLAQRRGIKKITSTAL
Chain of Ribosomal protein S6 kinase alpha-2 (Homo sapiens) (Q15349 whole entry): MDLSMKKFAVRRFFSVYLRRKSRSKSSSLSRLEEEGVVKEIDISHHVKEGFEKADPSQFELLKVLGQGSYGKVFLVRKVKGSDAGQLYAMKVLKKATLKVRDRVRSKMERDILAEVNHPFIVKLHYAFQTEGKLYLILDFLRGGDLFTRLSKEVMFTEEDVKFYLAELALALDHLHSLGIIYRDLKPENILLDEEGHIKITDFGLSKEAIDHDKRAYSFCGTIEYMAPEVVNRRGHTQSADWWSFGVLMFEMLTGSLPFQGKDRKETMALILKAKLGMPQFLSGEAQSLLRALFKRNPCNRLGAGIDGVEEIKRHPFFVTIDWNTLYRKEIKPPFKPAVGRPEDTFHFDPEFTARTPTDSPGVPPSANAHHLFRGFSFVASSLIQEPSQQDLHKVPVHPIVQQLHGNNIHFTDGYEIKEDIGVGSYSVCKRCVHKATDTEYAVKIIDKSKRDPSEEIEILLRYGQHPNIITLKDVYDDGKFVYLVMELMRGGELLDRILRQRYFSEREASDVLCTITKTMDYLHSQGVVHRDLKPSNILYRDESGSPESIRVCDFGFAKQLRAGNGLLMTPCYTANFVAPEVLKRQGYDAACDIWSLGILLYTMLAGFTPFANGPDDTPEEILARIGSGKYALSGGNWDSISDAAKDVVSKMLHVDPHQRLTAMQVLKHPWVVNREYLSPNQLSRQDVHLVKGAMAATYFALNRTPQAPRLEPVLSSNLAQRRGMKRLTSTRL
Chain of Tyrosine-protein kinase Lck (Homo sapiens) (P06239 2-509 limits assumed): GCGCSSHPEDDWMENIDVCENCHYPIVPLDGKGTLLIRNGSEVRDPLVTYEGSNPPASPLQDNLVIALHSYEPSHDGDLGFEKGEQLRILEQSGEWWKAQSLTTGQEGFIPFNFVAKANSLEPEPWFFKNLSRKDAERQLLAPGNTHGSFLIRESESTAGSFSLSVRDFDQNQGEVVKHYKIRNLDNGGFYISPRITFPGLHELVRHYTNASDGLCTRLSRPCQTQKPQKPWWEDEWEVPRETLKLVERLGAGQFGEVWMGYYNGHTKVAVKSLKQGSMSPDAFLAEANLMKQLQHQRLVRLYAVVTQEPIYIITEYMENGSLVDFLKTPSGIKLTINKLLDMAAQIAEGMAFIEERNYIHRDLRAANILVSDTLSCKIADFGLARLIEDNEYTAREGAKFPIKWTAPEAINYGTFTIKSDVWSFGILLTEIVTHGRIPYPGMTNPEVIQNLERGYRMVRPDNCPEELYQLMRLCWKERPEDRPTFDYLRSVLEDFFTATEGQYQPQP
Chain of Ribosomal protein S6 kinase alpha-6 (Homo sapiens) (Q9UK32 whole entry): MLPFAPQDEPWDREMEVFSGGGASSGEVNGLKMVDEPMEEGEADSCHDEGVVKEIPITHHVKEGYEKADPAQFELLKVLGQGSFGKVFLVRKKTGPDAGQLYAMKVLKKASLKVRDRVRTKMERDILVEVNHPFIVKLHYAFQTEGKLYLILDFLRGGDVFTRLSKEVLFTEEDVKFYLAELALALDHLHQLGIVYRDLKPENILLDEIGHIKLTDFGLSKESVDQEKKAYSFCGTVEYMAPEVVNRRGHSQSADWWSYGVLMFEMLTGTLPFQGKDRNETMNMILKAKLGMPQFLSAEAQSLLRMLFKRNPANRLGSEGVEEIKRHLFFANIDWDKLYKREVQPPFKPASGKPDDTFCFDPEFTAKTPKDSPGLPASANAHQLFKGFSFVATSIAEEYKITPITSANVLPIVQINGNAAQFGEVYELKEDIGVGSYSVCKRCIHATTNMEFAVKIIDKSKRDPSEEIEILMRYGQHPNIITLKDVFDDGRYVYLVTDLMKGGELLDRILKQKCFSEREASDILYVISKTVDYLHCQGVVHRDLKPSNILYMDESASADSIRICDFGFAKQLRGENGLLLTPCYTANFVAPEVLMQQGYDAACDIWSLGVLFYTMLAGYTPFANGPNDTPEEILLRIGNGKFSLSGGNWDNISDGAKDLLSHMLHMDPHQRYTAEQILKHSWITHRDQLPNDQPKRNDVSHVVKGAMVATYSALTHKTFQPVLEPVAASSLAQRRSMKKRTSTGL

For orientation: clearance means the rate of elimination divided by the concentration. As usually defined, the AUC is concentration integrated over time. Low readings indicate low exposure, high ones high exposure. The Vd is the apparent volume that relates the amount in the body to the concentration in plasma or blood. Lower therefore signals confinement near the circulation. Usually bioavailability stands for the share of a dose that reaches the circulation, judged against a reference dose that is usually intravenous. Low values mean little systemic uptake, high ones much systemic uptake. Broadly, the half-life is the time in which the quantity being followed falls by half. In general, fraction unbound refers to free concentration divided by total concentration. As usually defined, the efflux ratio is the permeability from basolateral to apical divided by that in the opposite direction, in the common usage. As usually defined, the Papp A→B is how fast a substance crosses the layer from the apical side. Lower therefore signals slow passage. As usually defined, the logD is lipophilicity at a set pH, counting ionised and neutral species. Turning to `O=C(Nc1ccnc(NC(=O)C2CC2)c1)c1c(Cl)cccc1Cl`, the clearance in “in vivo [1]” stood at 65 mL/min/kg; in the series “in vivo [6]” it was 65 mL/min/kg; in the series “in vivo [10]”, 21 mL/min/kg. Moreover, the AUC in “in vivo [2]” worked out at 2.6 µM·h. Besides, the Vd came to 0.6 L/kg in the series “in vivo [3]” and 1.1 L/kg in the series “in vivo [8]”. Moreover, the bioavailability in the series “in vivo [4]” was 73%; in the series “in vivo [7]”, 100%. In addition, the values for the half-life in the series “in vivo [5]” and in the series “in vivo [9]” were 0.3 h and 1.2 h, respectively. For the same compound, the CLhep predicted in “in vitro [11]” is 16 mL/min/kg; in “in vitro [12]”, 64 mL/min/kg; in “in vitro [13]”, 7 mL/min/kg. In addition, the fraction unbound in the series “in vitro [14]” was 0.041; in “in vitro [15]” it was 0.044; in “in vitro [16]”, 0.049. Also, in “in vitro [17]”, the efflux ratio worked out at 0.4. Besides, the Papp A→B in the series “in vitro [18]” was 30 ×10⁻⁶ cm/s. In the series “physchem [19]”, this compound came in with a logD of 3.4.
By Cmax is commonly meant the highest concentration seen after dosing. A word on the solubility: it is the concentration that dissolves in the medium under given conditions. As to `O=C(Nc1ccnc(NC(=O)[C@H]2C[C@H]2F)c1)c1c(Cl)cccc1Cl`, the peak level in “in vivo [20]” (Cmax) was 47 µM. The same compound yielded an AUC in “in vivo [21]” of 50 µM·h. Also, in “in vivo [7]”, the bioavailability was found to be 100%. The compound further returned a Vd in “in vivo [8]” of 1 L/kg. In addition, the half-life in “in vivo [9]” was 1.8 h. In “in vivo [10]”, the clearance came out at 15 mL/min/kg. Further, the CLhep predicted in “in vitro [11]” is 21 mL/min/kg; in the series “in vitro [12]”, 55 mL/min/kg; in the series “in vitro [13]”, 11 mL/min/kg. For the same compound, the free fraction (fraction unbound) was 0.048 in “in vitro [14]”, 0.018 in the series “in vitro [15]” and 0.025 in the series “in vitro [16]”. Besides, in “in vitro [17]”, the efflux ratio stood at 0.8. In “in vitro [18]”, this compound came in with a Papp A→B of 20 ×10⁻⁶ cm/s. Moreover, the concentration in solution in “physchem [22]” (solubility) was 126 µg/mL (≈ 342 µM). In the series “physchem [19]”, the logD amounted to 2.9.
In “physchem [22]”, `O=C(Nc1ccnc(NC(=O)C2CC2)c1)c1c(Cl)cc(-c2nnc[nH]2)cc1Cl` returned a solubility of 2 µg/mL (≈ 4.79 µM).
On to `O=C(Nc1ccnc(NC(=O)C2CC2)c1)c1c(Cl)cc(-c2cn[nH]c2)cc1Cl`, for which the concentration in solution in the series “physchem [22]” (solubility) was 1 µg/mL (≈ 2.4 µM).
Consider `N#Cc1cc(F)c(C(=O)Nc2ccnc(NC(=O)[C@H]3C[C@H]3F)c2)c(Cl)c1`, for which, in the series “in vivo [20]”, the Cmax amounted to 108 µM. The compound further registered an AUC in the series “in vivo [21]” of 917 µM·h. In the series “in vivo [7]”, this compound gave a bioavailability of 70%. The Vd in the series “in vivo [8]” came out at 2.3 L/kg. Besides, the half-life in “in vivo [9]” is 40 h. This compound also displayed a clearance in the series “in vivo [10]” of 1 mL/min/kg. Further, the figures for the CLhep predicted in the series “in vitro [11]”, in “in vitro [12]” and in “in vitro [13]” were 11 mL/min/kg, 34 mL/min/kg and 8 mL/min/kg, respectively. For the same compound, the results for the fraction unbound in “in vitro [14]”, in the series “in vitro [15]” and in “in vitro [16]” were 0.09, 0.05 and 0.134, respectively. In addition, in the series “in vitro [17]”, the efflux ratio stood at 1.5. Also, in the series “in vitro [18]”, the Papp A→B was found to be 11 ×10⁻⁶ cm/s. In “physchem [22]”, the concentration in solution (solubility) came to 53 µg/mL (≈ 141 µM). For the same compound, the logD in the series “physchem [19]” is 2.5. The inhibition in vivo at 10 mg/kg in the series filed under Mus musculus [23] came out at 60%. Further, the inhibition in vivo at 30 mg/kg in the series filed under Mus musculus [24] was 72%. Besides, the inhibition in vivo at 70 mg/kg in the series listed under Mus musculus [25] stood at 88%. Also, in the series filed under Mus musculus [26], the inhibition in vivo at 100 mg/kg amounted to 77%.
In general, inhibition refers to the percentage by which the read-out fell short of the control. Low readings indicate little suppression, high ones strong suppression. On to `N#Cc1cc(Cl)c(C(=O)Nc2ccnc(NC(=O)C3CC3)c2)c(Cl)c1`, for which the inhibition in [27] was found to be 61%; in [28] it was 61%; in the series filed under Homo sapiens, 68%; in [29], 73%; in [30], 80%; in series [31] it was 80%. Moreover, the Cmax in “in vivo [20]” turned out to be 119 µM. This compound returned an AUC in “in vivo [21]” of 818 µM·h. Further, the Vd was 0.9 L/kg in the series “in vivo [3]” and 0.8 L/kg in the series “in vivo [8]”. The results for the bioavailability in “in vivo [4]” and in the series “in vivo [7]” were 100% and 86%, respectively. In addition, the half-life in the series “in vivo [5]” is 1 h; in “in vivo [9]”, 4.2 h. Moreover, the values for the clearance in “in vivo [6]” and in the series “in vivo [10]” were 13 mL/min/kg and 3.1 mL/min/kg, respectively. In “in vitro [32]”, this compound showed a metabolised below 2%. Also, the CLhep predicted in the series “in vitro [11]” is 12 mL/min/kg; in “in vitro [12]”, 38 mL/min/kg; in the series “in vitro [13]”, 8 mL/min/kg. For the same compound, the free fraction (fraction unbound) was 0.059 in “in vitro [14]”, 0.032 in the series “in vitro [15]” and 0.022 in “in vitro [16]”. Moreover, in the series “in vitro [17]”, the efflux ratio is 1. In “in vitro [18]”, the Papp A→B amounted to 15 ×10⁻⁶ cm/s. In “physchem [22]”, this compound returned a solubility of 64 µg/mL (≈ 171 µM). For the same compound, the logD in the series “physchem [19]” is 3.2.
In “in vivo [20]”, `N#Cc1cc(Cl)c(C(=O)Nc2ccnc(NC(=O)[C@H]3C[C@H]3F)c2)c(Cl)c1` registered a Cmax of 143 µM. In “in vivo [21]”, this compound had an AUC of 1090 µM·h. This compound also returned a bioavailability in “in vivo [7]” of 100%. In the series “in vivo [8]”, this compound gave a Vd of 1 L/kg. The compound also had a half-life in “in vivo [9]” of 4.1 h. This compound also registered a clearance in “in vivo [10]” of 4.6 mL/min/kg. Moreover, the CLhep predicted in “in vitro [11]” was 10 mL/min/kg; in the series “in vitro [12]”, 36 mL/min/kg; in the series “in vitro [13]”, 11 mL/min/kg. Besides, the fraction unbound in the series “in vitro [14]” was 0.082; in “in vitro [15]” it was 0.017; in “in vitro [16]”, 0.068. In the series “in vitro [17]”, the efflux ratio worked out at 1.5. The compound also displayed a Papp A→B in the series “in vitro [18]” of 12 ×10⁻⁶ cm/s. Moreover, the concentration in solution in “physchem [22]” (solubility) came to 74 µg/mL (≈ 188 µM). Further, the logD in the series “physchem [19]” came out at 2.8.
Turning to `O=C(Nc1ccnc(NC(=O)[C@H]2C[C@H]2F)c1)c1c(F)cccc1Cl`, the bioavailability in “in vivo [7]” amounted to 100%. The compound also registered a Vd in the series “in vivo [8]” of 1.2 L/kg. This compound gave a half-life in the series “in vivo [9]” of 0.5 h. This compound returned a clearance in “in vivo [10]” of 39 mL/min/kg. Besides, the CLhep predicted was 20 mL/min/kg in the series “in vitro [11]”, 64 mL/min/kg in “in vitro [12]” and 4 mL/min/kg in the series “in vitro [13]”. Moreover, the fraction unbound is 0.122 in “in vitro [14]”, 0.036 in the series “in vitro [15]” and 0.066 in “in vitro [16]”. Also, the efflux ratio in “in vitro [17]” was found to be 0.4. In “in vitro [18]”, this compound yielded a Papp A→B of 30 ×10⁻⁶ cm/s. Moreover, the solubility in “physchem [22]” is 28 µg/mL (≈ 79.6 µM).

Values taken from ChEMBL document CHEMBL2385054, “Lead optimization of a 4-aminopyridine benzamide scaffold to identify potent, selective, and orally bioavailable TYK2 inhibitors” (J Med Chem, 2013).
